Article PMC12608155, “Discovery of Potential Antileishmanial Compounds Through Phenotypic Screening of an Alkaloid Library” (Molecules, 2025)
Like-named read-outs stand apart in the source and are kept apart here.

Assays:
[1] = test system: L. donovani IRFP axenic amastigotes; assay: Primary single-concentration screening on axenic amastigotes, growth inhibition at 72 h; assay type: cell-based, Leishmania donovani; conditions: axenic amastigotes; for Growth Inhibition (%) at 72h, 1 µM_Exp1 / Growth Inhibition (%) at 72h, 1 µM_Exp2 / inhibition at 1 µM: 1 µM; for Growth Inhibition (%) at 72h, 10 µM_Exp1 / Growth Inhibition (%) at 72h, 10 µM_Exp2 / inhibition at 10 µM: 10 µM; for inhibition at 1 µM / inhibition at 10 µM: Leishmania donovani
[2] = test system: L. donovani IRFP axenic amastigotes; assay: Dose-response assay on axenic amastigotes; assay type: cell-based, Leishmania donovani
Protocol: The objective of the present study was to identify new antileishmanial drug candidates by screening a commercial library of plant-derived alkaloids using a platform based on axenic amastigotes of L. donovani IRFP—the causative agent of VL—genetically modified to emit infrared fluorescence during their viable stage (hereafter referred to as L. donovani IRFP). To this end, single-dose assays at 10 μM and 1 μM, as well as dose–response assays, were performed. Compounds showing significant activity in the initial screening were subsequently clustered according to chemical structure using the DataWarrior tool, and representative compounds were further evaluated in dose response assays against axenic amastigotes.
Female Balb/c mice aged from 6 to 8 weeks were intraperitoneally inoculated with 1.5 × 10^9 infective L. donovani IRFP metacyclic promastigotes. Between 8 and 12 weeks after infection, mice were humanely euthanised and bone marrow was collected from the femurs and tibias of both hind limbs. The bones were cut at both ends, and prewarmed PBS was flushed through the medullary cavity using a syringe fitted with a 27G needle, to extract the bone marrow cells. The resulting cell suspension was filtered through a 100 µm cell strainer and centrifuged at 2500 rpm for 10 min at room temperature. To obtain free amastigotes, the pelleted cells were resuspended within a 75 mL ventilated flask in amastigote culture medium (15 mM KCl; 136 mM KH2PO4; 10 mM K2HPO4.3H2O; 0.5 mM MgSO4.7 H2O; 24 mM NaHCO3; 22 mM glucose; 1 mM glutamine, 1x RPMI 1640 vitamin mix (Sigma-Aldrich, Merck, Darmstadt, Germany), 10 mM folic acid, […], 1x RPMI amino acid mix (Sigma-Aldrich, Merck, Darmstadt, Germany), […], antibiotic mixture, 25 mM MES, 10% FBS (Gibco, ThermoFisher Scientific, Waltham, MA, USA) and incubated at 37 °C in a humidified atmosphere containing 5% CO2 [46].
The efficacy of the selected compounds was assessed by measuring near-infrared fluorescence (700 nm) using an Odyssey Infrared Imaging System (Li-Cor, Lincoln, NE, USA) following the previously described protocols.

[3] = test system: L. donovani IRFP intramacrophagic amastigotes; assay: Dose-response assay on ex vivo infected splenic explants (intramacrophagic amastigotes); assay type: cell-based, Leishmania donovani; conditions: read-out: EC50 Intramacrophagic Amastigotes
[4] = test system: RAW 264.7; assay: Cytotoxicity in RAW 264.7 cells (alamarBlue, 72 h); conditions: read-out: CC50 RAW 264.7; 72 h, alamarBlue
Protocol: (§1) To this end, we calculated SIs from 16 preselected results from the ex vivo system. With this aim, dose–response curves were performed in duplicate across at least three independent experiments using RAW 264.7 mouse macrophages (as a model of host cells harboring amastigotes) and HepG2 (as a model for assessing systemic toxicity).
(§2) To evaluate the safety of the selected compounds, two cell lines were employed: RAW 264.7 (a mouse macrophage-derived cell line) and HepG2 (a human hepatoma cell line). Furthermore, to determine the intestinal tolerance relevant to potential oral administration, mouse intestinal organoids were prepared.
(§3) RAW 264.7 and HepG2 were routinely cultured under standard conditions. RAW 264.7 cells were maintained in RPMI medium (Gibco) supplemented with, 25 mM HEPES, 24 mM NaHCO3, 2 mM L-glutamine, mixture of antibiotics and 10% FBS. HepG2 cells were cultured in DMEM/F-12 (Gibco) and supplemented 10% of FBS. For cytotoxicity assays, 10,000 cells per well were seeded into 96-well plates and incubated overnight at 37 °C with 5% of CO2. Subsequently, 2-fold serial dilutions of the compounds were added and incubated for 72 h. Cell viability using the alamarBlue™ assay according to the manufacturer’s instructions, and fluorescence was measured with a Varioskan™ LUX microplate reader (ThermoFisher Scientific, Waltham, MA, USA). Non-linear regression analyses were performed using SigmaPlot^TM software (version 10.0) to calculate CC50. Data were obtained from at least three independent experiments performed in duplicate.

[5] = test system: HepG2; assay: Cytotoxicity in HepG2 cells (alamarBlue, 72 h); conditions: read-out: CC50 HepG2; 72 h, alamarBlue
Protocol: as §1, §2, §3

[6] = test system: mouse intestinal organoids; assay: Tolerance of mouse intestinal organoids (alamarBlue); assay type: cell-based; conditions: for CC50: 72 h incubation, Figure S4
Description: (§4) Mouse intestinal organoids were generated following protocols standardized previously. Briefly, to obtain adult intestine stem cells, C57BL/6 mice were humanely euthanized. A section of the duodenum was excised, rinsed in ice-cold PBS, and cut into small pieces for gentle dissociation using Gentle Cell Dissociation Reagent. Tissue fragments enriched in duodenal crypts and little tissue debris were microscopically selected and resuspended in a 1:1 mixture of Geltrex™ and IntestiCult™ Mouse Medium (Gibco, ThermoFisher Scientific, Waltham, MA, USA /Stemcell Technologies^TM, Vancouver, BC, Canada). Aliquots of 50 µL of this suspension were dispensed into the center of each well of a prewarmed 24-well plate to form domes containing organoids, which were then incubated to allow matrix polymerization. Then, […] of IntestiCult™ Mouse Medium was added to each well. The plate was incubated at 37 °C in a humidified atmosphere containing 5% CO2, and the culture medium was refreshed every 48 h. During this period, organoids continued to proliferate, and passaging was performed at a 1:4 ratio every 7–10 days.
(§5) To determine the in vitro tolerance to oral administration of the active compounds, a 384-well assay was adapted from the protocol described by Du and co-workers. Briefly, following medium removal, organoids were collected from the extracellular matrix using the same procedure as for passaging. The resulting pellet was resuspended in 3.2 mL of a 1:1 mixture of Geltrex™ LDEV-Free Reduced Growth Factor Basement Membrane Matrix (without phenol red, Gibco) and IntestiCult™ Mouse Medium. Using a chilled pipette dispenser, 8 µL of the organoid suspension was dispensed into pre-cooled 384-well plates, which were then gently agitated to evenly distribute the matrix. The plates were incubated at 37 °C for 10 min and then, 32 µL of IntestiCult™ Mouse Medium was added to each well. To prevent edge effects, 100 µL of sterile water was added to the perimeter wells. After 3 days of culture, 10 µL per well of the test compounds dissolved in IntestiCult™ Mouse Medium were added. Positive (0.03% H2O2) and negative (0.2% DMSO) controls were included in each assay. After 72 h of incubation, 5 µL of alamarBlue™ HS were added to each well, and fluorescence was measured after 24 h using a Varioskan™ LUX microplate reader. All assays were conducted in triplicate and repeated in at least three independent experiments.

[7] = Cytotoxicity in RAW 264.7 cells (alamarBlue, 72 h); conditions: mouse
Protocol: as §1, §2, §3

[8] = Cytotoxicity in HepG2 cells (alamarBlue, 72 h); conditions: human
Protocol: as §1, §2, §3

[9] = Tolerance of mouse intestinal organoids (alamarBlue); assay type: cell-based; conditions: C57BL/6, mouse
Description: as §4, §5

[10] = test system: axenic amastigotes of L. amazonensis; parameters: method as in PMID 25029171; conditions: compared with glucantime; cited from earlier work
[11] = test system: Leishmania amazonensis; parameters: method as in PMID 25029171; conditions: cited from earlier work
[12] = primary cultures of infected mouse splenocytes
[13] = Leishmania donovani, Splenocyte, primary cultures of infected mouse splenocytes
[14] = mouse intestinal organoids (from duodenal crypts), 72 h incubation, Figure S4, read-out: CC50 mouse intestinal organoids
[15] = experiment 1, 72 h, read-out: Growth Inhibition (%) at 72h, 1 µM_Exp1
[16] = experiment 2, 72 h, read-out: Growth Inhibition (%) at 72h, 1 µM_Exp2
[17] = experiment 1, 72 h, read-out: Growth Inhibition (%) at 72h, 10 µM_Exp1
[18] = experiment 2, 72 h, read-out: Growth Inhibition (%) at 72h, 10 µM_Exp2
[19] = Leishmania donovani, Splenocyte, in Mus musculus

| SMILES | Growth Inhibition (%) at 72h, 1 µM_Exp1 ([1]; experiment 1, 72 h) | Growth Inhibition (%) at 72h, 1 µM_Exp2 ([1]; experiment 2, 72 h) | Growth Inhibition (%) at 72h, 10 µM_Exp1 ([1]; experiment 1, 72 h) | Growth Inhibition (%) at 72h, 10 µM_Exp2 ([1]; experiment 2, 72 h) | IC50 [2] | EC50 [3, 12] | CC50 [4] | CC50 [5] | IC50 ([2]; Leishmania donovani) | EC50 [3, 13] | CC50 at 72 h ([7]; RAW 264.7 macrophage cells) | CC50 at 72 h ([8]; HepG2 hepatoma cells) | inhibition at 1 µM [1, 15] | inhibition at 1 µM [1, 16] | inhibition at 10 µM [1, 17] | inhibition at 10 µM [1, 18] | also measured |
| --- | --- | --- | --- | --- | --- | --- | --- | --- | --- | --- | --- | --- | --- | --- | --- | --- | --- |
| COc1ccc2c(C)c3[n+](cc2c1OC)CCc1cc2c(cc1-3)OCO2 [13-Methylberberine] | 58.33% | 69.84% | 86.05% | 98.60% | 500 ± 40 nM | 750 ± 20 nM | > 10000 nM | 28300 ± 9180 nM |  |  |  |  |  |  |  |  | CC50 [6]: > 10000 nM |
| COc1ccc2c(c1OC)C(OC)N(C)c1c-2ccc2cc3c(cc12)OCO3 (stereo not shown) [Angoline] | 83.55% | 85.33% | 100.85% | 100.07% | 120 ± 10 nM | 1150 ± 40 nM | 5280 ± 280 nM | 5150 ± 210 nM |  |  |  |  |  |  |  |  | CC50 [6]: 12600 ± 600 nM; Toxicity in mouse intestinal organoids (tolerance for oral administration) ([6]; in words): significant toxicity |
| COc1ccc2cc3[n+](cc2c1OC)CCc1cc2c(cc1-3)OCO2 [Berberine] |  |  |  |  |  |  |  |  | 570 ± 80 nM | 1760 ± 60 nM | > 20000 nM | > 20000 nM |  |  |  |  | CC50 at 72 h [9, 14]: > 25000 nM |
| COc1ccc2c(c[n+](C)c3c4cc5c(cc4ccc23)OCO5)c1OC [Chelerythrine] |  |  |  |  |  |  |  |  | 80 ± 10 nM | 1610 ± 50 nM |  |  | 97.2% | 95.7% | 100% | 101% | CC50 at 72 h [7]: 5510 ± 160 nM; CC50 at 72 h [8]: 5500 ± 640 nM; in vitro IC50 values against axenic amastigotes of L. amazonensis [10]: very similar to those of glucantime; antileishmanial effect in vivo [11]: moderate |
| c1c2c(cc3c1OCO3)-c1cc3ccc4c(c3c[n+]1CC2)OCO4 [Coptisine] |  |  |  |  |  |  |  |  | 2850 ± 250 nM |  |  |  |  |  |  |  | EC50 [3, 19]: 3390 ± 230 nM; CC50 at 72 h [7]: > 10000 nM; CC50 at 72 h [8]: > 10000 nM; CC50 at 72 h [9]: > 25000 nM |
| COc1cc2c(cc1OC)-c1c(C)c3ccc(OC)c(OC)c3c[n+]1CC2 [Dehydrocorydaline] |  |  |  |  |  |  |  |  | 2810 ± 490 nM | 2680 ± 110 nM | > 10000 nM | > 10000 nM | 19.1% | -42.6% | 81.7% | 88.3% | CC50 at 72 h [9, 14]: > 50000 nM |
| CCOC1c2c(ccc3c2OCO3)-c2ccc3cc4c(cc3c2N1C)OCO4 (stereo not shown) [Ethoxysanguinarine] | 100.74% | 99.44% | 100.41% | 100.07% | 210 ± 30 nM | 840 ± 30 nM | 1620 ± 110 nM | 1440 ± 30 nM |  |  |  |  |  |  |  |  |  |
| COc1cc2c[n+](C)c3c4cc5c(cc4ccc3c2cc1OC)OCO5 [Nitidine] |  |  |  |  |  |  |  |  | 270 ± 10 nM | 650 ± 30 nM | 2010 ± 160 nM | 490 ± 20 nM | 45% | 69.6% | 100% | 99.7% | in vitro IC50 values against axenic amastigotes of L. amazonensis [10]: very similar to those of glucantime; antileishmanial effect in vivo [11]: moderate |
| c1c2c(cc3c1OCO3)-c1cc3cc4c(cc3c[n+]1CC2)OCO4 [Pseudocoptisine] | 65.54% | 88.42% | 97.95% | 99.04% | 810 ± 120 nM | 1430 ± 70 nM | > 10000 nM | > 10000 nM |  |  |  |  |  |  |  |  | CC50 [6]: > 10000 nM |
| C[n+]1cc2c3c(ccc2c2ccc4cc5c(cc4c21)OCO5)OCO3 [Sanguinarine] |  |  |  |  |  |  |  |  | 190 ± 10 nM |  | 1840 ± 60 nM | 2080 ± 60 nM | 99.7% | 99.5% | 100% | 101% | EC50 [3, 19]: 850 ± 30 nM |
| CC[C@@H]1[C@H]2CCCCN3[C@H]2[C@H](C[C@H]3[C@@H]2C[C@H](C)C(=O)O2)[C@@H]2[C@H]1OC(=O)[C@H]2C [Tuberostemonine] |  |  |  |  |  |  |  |  | 2060 ± 110 nM | > 50000 nM |  |  | 63.6% | 53% | 102% | 101% | CC50 at 72 h [7]: 50000 ± 5510 nM; CC50 at 72 h [8]: > 40000 nM |
